# Where two headings read alike, the source gives them in different places.
# Tests used:
# wild-type M. bovis BCG = test: microbe, parasite or virus in culture; type: cell-based; settings: for MIC: Mycobacterium tuberculosis variant bovis BCG, BCG, read-out: MIC WT
# M. smegmatis WT (SMR5) = test: microbe, parasite or virus in culture; type: cell-based; settings: for MIC: Mycolicibacterium smegmatis
# [1] = tested on: M. smegmatis ΔmspA mutant MN01; settings: ΔmspA mutant compared with wild-type M. smegmatis; cited from earlier work
# [2] = tested on: M. smegmatis SMR5 wt (pMS2) and rv0194-expressing strain (pML655); type: cell-based
# [3] = tested on: M. smegmatis SMR5 with rv0194 expression vector pML655; type: cell-based
# [4] = tested on: M. smegmatis ms3747 mutant ML77; type: cell-based; settings: ms3747 mutant versus wt M. smegmatis
# E. coli = settings: cited from earlier work
# M. tuberculosis = test: Minimal inhibitory concentration of copper on Hartmans de Bond medium; type: cell-based
Compound,MIC (wild-type M. bovis BCG),MIC (M. smegmatis WT (SMR5); read-out: MIC WT),also measured
O=C(N[C@H](CO)[C@H](O)c1ccc([N+](=O)[O-])cc1)C(Cl)Cl [Chloramphenicol],8 µg/mL,32 µg/mL,
CC1(C)S[C@@H]2[C@H](NC(=O)[C@H](N)c3ccccc3)C(=O)N2[C@H]1C(=O)O [Ampicillin],62.5 µg/mL,125 µg/mL,increased resistance toward ampicillin [1]: 16 fold
CO[C@@H]1[C@@H](OC(N)=O)[C@@H](O)[C@H](Oc2ccc3c(O)c(NC(=O)c4ccc(O)c(CC=C(C)C)c4)c(=O)oc3c2C)OC1(C)C [Novobiocin],,4 µg/mL,
COC(=O)[C@H]1[C@H]2C[C@@H]3c4[nH]c5cc(OC)ccc5c4CCN3C[C@H]2C[C@@H](OC(=O)c2cc(OC)c(OC)c(OC)c2)[C@@H]1OC [reserpine],,,growth with reserpine in the presence of ethidium bromide [2]: completely inhibited growth of both strains; accumulation of ethidium bromide after addition of reserpine [3]: quickly reached levels observed for wt M. smegmatis
CN[C@H](CC(C)C)C(=O)N[C@H]1C(=O)N[C@@H](CC(N)=O)C(=O)N[C@H]2C(=O)N[C@H]3C(=O)N[C@H](C(=O)N[C@H](C(=O)O)c4cc(O)cc(O)c4-c4cc3ccc4O)[C@H](O)c3ccc(c(Cl)c3)Oc3cc2cc(c3O[C@@H]2O[C@H](CO)[C@@H](O)[C@H](O)[C@H]2O[C@H]2C[C@](C)(N)[C@H](O)[C@H](C)O2)Oc2ccc(cc2Cl)[C@H]1O [Vancomycin],5 µg/mL,1.25 µg/mL,
CN(C)[C@@H]1C(=O)C(C(N)=O)=C(O)[C@@]2(O)C(=O)C3=C(O)c4c(O)cccc4[C@@](C)(O)[C@H]3C[C@@H]12 [Tetracyclin],,,MIC WT (wild-type M. bovis BCG): 2 µg/mL; MIC WT (M. smegmatis WT (SMR5)): 0.3 µg/mL
CC[n+]1c(-c2ccccc2)c2cc(N)ccc2c2ccc(N)cc21 [ethidium bromide],,,MIC (M. smegmatis WT (SMR5); read-out: MIC of ethidium bromide): 1.25 µg/mL
[H]/N=C(/N)N[C@H]1[C@H](O)[C@@H](O)[C@H](O[C@@H]2O[C@@H](C)[C@](O)(C=O)[C@H]2O[C@@H]2O[C@@H](CO)[C@H](O)[C@@H](O)[C@@H]2NC)[C@@H](N/C(N)=N\[H])[C@@H]1O [Streptomycin],0.5 µg/mL,,
[Cu] [copper],,,"copper concentration affecting growth, mutant relative to wt [4]: four-fold lower; minimal inhibitory concentration of copper (E. coli): ≈ 3 mM; minimal inhibitory concentration of copper (M. tuberculosis): less than 24 μM"
CC[C@H]1OC(=O)[C@H](C)[C@@H](O[C@H]2C[C@@](C)(OC)[C@@H](O)[C@H](C)O2)[C@H](C)[C@@H](O[C@@H]2O[C@H](C)C[C@H](N(C)C)[C@H]2O)[C@](C)(O)C[C@@H](C)C(=O)[C@H](C)[C@@H](O)[C@]1(C)O [Erythromycin],,2.5 µg/mL,

# Source: patent US20110160123A1, “TARGETING THE EFFLUX SYSTEMS OF MYCOBACTERIUM TUBERCULOSIS” (THE UAB RESEARCH FOUNDATION, priority 2008, published 2011)
